Patent publication US20230355506A1, “ACTIVE INGREDIENT COMPLEX FOR COSMETIC PREPARATIONS” (LA PRAIRIE GROUP AG, priority 2022, published 2023)

Each molecule was assayed on collagen I A2 (assay: ELISA for collagen1A2 in ECM isolated from cultured hypodermis explants after 10 days of treatment). Conditions: additions (extract solvents/additives) alone.
Assay type: cell-based, human
Description: The hypodermis was prepared and weighed out into approximately 200 mg pieces. The tissue was cultured in a submersed state in defined and serum-free hypodermis tissue culture medium (CB-EM-HYP) in an actively humidified biomedical incubator (Memmert, Germany) at 37° C. and 5% CO2.
Overnight cultivation was followed by substitution with fresh tissue culture medium. Explants were cultivated either in the presence or absence of test samples.
Over a period of 10 days, the medium was replaced daily with freshly supplemented test samples or with normal media without test samples.
After 10 days of treatment, a portion of the tissue samples was processed for the extraction of ECM proteins.
Isolated ECM was subjected to a protein estimation in accordance with the BCA method (Bicinchoninic Acid) (Sigma Aldrich), and ELISAs (Biotechne) corresponding to the antigen collagen1A2 were performed according to the manufacturer's protocol using the same amounts of proteins as were estimated from the BCA assay. A sensitive filter-based microplate reader (Accuris, USA) was used to perform readout.
The following test samples were investigated: • A. Glycolic caviar extract containing approx. 6% fish egg material, 10% water and propylene glycol ad 100. […] Lipophilic caviar extract containing 40% fish egg material, 0.02% tocopherol, 1% by weight phenoxyethanol and triglycerides ad 100. This extract was obtained from an extraction with triglycerides and phenoxyethanol of a homogenizate from fish eggs of Acipenser baerii. […] The proportion of sodium mannose 6-phosphate is 2.5% by weight. The proportion of mannose is 2.5% by weight.

| SMILES | Increase in the expression of collagen I by the additions alone |
| --- | --- |
| O=C(O)[C@@H](O)[C@H](O)[C@H](O)[C@@H](O)C(=O)O [galactaric acid] | do not show any increase |
| OCC(O)CO [glycerol] | do not show any increase |
| CC(O)CO (stereo not shown) [propylene glycol] | do not show any increase |
| O [water] | do not show any increase |
